PubChem BioAssay AID602321 (The Scripps Research Institute Molecular Screening Center, 2012)
Calls of active or inactive are those of the source. No rule for the calls is given here.

Assays:
Assay in all cases: serine hydrolase off-target inhibition in mouse brain, late-stage follow-up, selectivity assay for DAGLb inhibitor project, biochemical, gel-based competitive ABPP, mouse brain membrane, set 3 (AID 602321)
LYPLA1 = conditions: gel-based competitive ABPP fluorescence, stronger effect = higher value
[1] = biological target: Monoacylglycerol lipase ABHD6 (Mus musculus) (UniProt Q8R2Y0); conditions: gel-based competitive ABPP fluorescence, stronger effect = higher value
Sequence of Monoacylglycerol lipase ABHD6 (Mus musculus) (Q8R2Y0 whole entry, looked up): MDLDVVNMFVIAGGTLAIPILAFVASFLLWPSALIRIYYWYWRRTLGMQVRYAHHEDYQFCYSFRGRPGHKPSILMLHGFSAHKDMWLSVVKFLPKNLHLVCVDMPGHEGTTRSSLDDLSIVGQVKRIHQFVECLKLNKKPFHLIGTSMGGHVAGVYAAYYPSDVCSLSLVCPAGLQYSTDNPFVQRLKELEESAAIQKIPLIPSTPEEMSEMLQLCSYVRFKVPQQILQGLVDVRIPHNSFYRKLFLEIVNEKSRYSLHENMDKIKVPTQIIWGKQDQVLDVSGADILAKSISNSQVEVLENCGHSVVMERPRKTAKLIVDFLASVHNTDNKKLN

FAAH = conditions: gel-based competitive ABPP fluorescence, stronger effect = higher value
[2] = biological target: Acyl-protein thioesterase 2 (Mus musculus) (UniProt Q9WTL7); conditions: gel-based competitive ABPP fluorescence, stronger effect = higher value
Sequence of Acyl-protein thioesterase 2 (Mus musculus) (Q9WTL7 whole entry, looked up): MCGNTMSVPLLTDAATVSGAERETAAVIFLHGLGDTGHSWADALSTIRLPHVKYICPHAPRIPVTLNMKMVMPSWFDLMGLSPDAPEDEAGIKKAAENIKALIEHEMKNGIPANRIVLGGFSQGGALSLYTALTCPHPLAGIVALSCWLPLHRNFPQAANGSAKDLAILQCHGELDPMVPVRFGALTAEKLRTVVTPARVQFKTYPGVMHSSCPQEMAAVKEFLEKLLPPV

APEH = conditions: gel-based competitive ABPP fluorescence, APEH, stronger effect = higher value
[3] = system: Acyl-protein thioesterase 1 (Mus musculus) + Monoacylglycerol lipase ABHD6 (Mus musculus) + Acyl-protein thioesterase 2 (Mus musculus); conditions: gel-based competitive ABPP fluorescence
[4] = biological target: Acyl-protein thioesterase 1 (Mus musculus) + Monoacylglycerol lipase ABHD6 (Mus musculus) + Acyl-protein thioesterase 2 (Mus musculus) (UniProt P97823+Q8R2Y0+Q9WTL7); conditions: gel-based competitive ABPP fluorescence
Sequence of Acyl-protein thioesterase 1 (Mus musculus) + Monoacylglycerol lipase ABHD6 (Mus musculus) + Acyl-protein thioesterase 2 (Mus musculus) (UniProt P97823+Q8R2Y0+Q9WTL7) (P97823 whole entry, looked up): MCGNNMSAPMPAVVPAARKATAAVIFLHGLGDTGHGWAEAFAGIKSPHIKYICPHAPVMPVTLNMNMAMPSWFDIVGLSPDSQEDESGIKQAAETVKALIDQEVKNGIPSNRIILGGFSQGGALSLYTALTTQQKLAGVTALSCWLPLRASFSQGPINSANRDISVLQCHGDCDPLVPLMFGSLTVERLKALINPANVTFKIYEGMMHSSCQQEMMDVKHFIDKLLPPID
Sequence of Acyl-protein thioesterase 1 (Mus musculus) + Monoacylglycerol lipase ABHD6 (Mus musculus) + Acyl-protein thioesterase 2 (Mus musculus) (UniProt P97823+Q8R2Y0+Q9WTL7) (Q8R2Y0 whole entry, looked up): as the sequence (Q8R2Y0 whole entry, looked up) above
Sequence of Acyl-protein thioesterase 1 (Mus musculus) + Monoacylglycerol lipase ABHD6 (Mus musculus) + Acyl-protein thioesterase 2 (Mus musculus) (UniProt P97823+Q8R2Y0+Q9WTL7) (Q9WTL7 whole entry, looked up): as the sequence (Q9WTL7 whole entry, looked up) above

| inhibition (LYPLA1; at 10 µM) | inhibition (LYPLA1; inhibition, at 1 µM) | inhibition ([1]; at 10 µM) | inhibition ([1]; inhibition, at 1 µM) | inhibition (FAAH; at 10 µM) | inhibition (FAAH; inhibition, at 1 µM) | inhibition ([2]; LYPLA2, at 10 µM) | inhibition ([2]; LYPLA2, inhibition, at 1 µM) | inhibition (APEH; at 10 µM) | inhibition (APEH; inhibition, at 1 µM) | outcome [3] | outcome [4] | SMILES |
| --- | --- | --- | --- | --- | --- | --- | --- | --- | --- | --- | --- | --- |
| 100% | 85% | 98% | 98% | 90% | 5% | 100% | 85% | 98% | 80% |  |  | O=C(O)c1cccc(-c2ccc(-c3cn(C(=O)N4CCCCC4c4ccccc4)nn3)cc2)c1 (stereo unspecified) |
| 90% | 10% | 98% | 98% | 90% | 0% | 90% | 10% | 25% (inactive) | 0% |  |  | O=C(N1CCCCC1c1ccccc1)n1cc(-c2ccc(-c3ccc(CO)cc3)cc2)nn1 (stereo unspecified) |
| 98% | 20% |  |  |  |  |  |  |  |  | inactive |  | O=C(c1cccc(-c2ccc(-c3cn(C(=O)N4CCCCC4c4ccccc4)nn3)cc2)c1)N1CCCCC1 (stereo unspecified) |
| 90% | 10% | 98% | 98% | 95% | 10% | 90% | 10% | 25% (inactive) | 0% |  |  | NC(=O)c1ccc(-c2ccc(-c3cn(C(=O)N4CCCCC4c4ccccc4)nn3)cc2)cc1 (stereo unspecified) |
| 0% (inactive) | 0% | 98% | 98% | 0% (inactive) | 0% | 0% (inactive) | 0% | 0% (inactive) | 0% |  |  | O=C(c1ccc(-c2ccc(-c3cn(C(=O)N4CCCCC4Cc4ccccc4)nn3)cc2)cc1)N1CCCCC1 (stereo unspecified) |
| 95% | 15% |  |  |  |  |  |  |  |  | inactive | active | O=C(N1CCCCC1c1ccccc1)n1cc(-c2ccc(-c3cccc(CO)c3)cc2)nn1 (stereo unspecified) |
| 0% (inactive) | 0% | 98% | 98% | 25% (inactive) | 0% | 0% (inactive) | 0% | 0% (inactive) | 0% |  |  | O=C(N1CCCCC1Cc1ccccc1)n1cc(-c2ccc(-c3cccc(CO)c3)cc2)nn1 (stereo unspecified) |
| 100% | 20% | 98% | 98% | 98% | 15% | 100% | 20% | 45% (inactive) | 0% |  |  | O=C(N1CCCCC1c1ccccc1)n1cc(-c2ccc(-c3ccccc3CO)cc2)nn1 (stereo unspecified) |
| 15% (inactive) | 0% |  |  |  |  |  |  |  |  | inactive | active | O=C(O)c1cccc(-c2ccc(-c3cn(C(=O)N4CCCCC4Cc4ccccc4)nn3)cc2)c1 (stereo unspecified) |
| 90% | 15% | 98% | 98% | 25% (inactive) | 10% | 90% | 15% | 25% (inactive) | 0% |  |  | O=C(c1ccc(-c2ccc(-c3cn(C(=O)N4CCCCC4c4ccccc4)nn3)cc2)cc1)N1CCCCC1 (stereo unspecified) |
| 25% (inactive) | 0% | 98% | 98% | 95% | 15% | 25% (inactive) | 0% | 0% (inactive) | 0% |  |  | O=C(O)c1cccc(-c2ccc(-c3cn(C(=O)N4CCCCC4CCc4ccccc4)nn3)cc2)c1 (stereo unspecified) |
| 15% (inactive) | 0% | 98% | 90% | 35% (inactive) | 0% | 15% (inactive) | 0% | 0% (inactive) | 0% |  |  | O=C(O)c1ccc(-c2ccc(-c3cn(C(=O)N4CCCCC4CCc4ccccc4)nn3)cc2)cc1 (stereo unspecified) |
